Results taken from patent US20240352022A1, “GROUP OF IMB-C5 SERIES COMPOUNDS HAVING ANTI-CORONAVIRUS ACTIVITY AND APPLICATION THEREOF” (priority 2021, published 2024).

Columns and labels:
in vitro [1] = conditions: human
HCoV-229E [2] = experiment: anti-HCoV-229E activity in Huh7 cells by cytopathic effect (CPE) assay; type: cell-based, Human coronavirus HCoV-229E; conditions: Human coronavirus 229E, Huh-7, HCoV-229E 100 TCID50 in Huh7 cells, about 48 h
in vitro [3] = conditions: human; remark: listed apart in the source
HCoV-229E [4] = experiment: anti-HCoV-229E activity in Huh7.5 cells by cytopathic effect (CPE) assay; type: cell-based, Human coronavirus HCoV-229E; conditions: Human coronavirus 229E, HCoV-229E 100 TCID50 in Huh7.5 cells, about 48 h

Structure (SMILES) | CC50 (in vitro [1]) | EC50 (HCoV-229E [2]) | CC50 (in vitro [3]) | EC50 (HCoV-229E [4])
Cn1c(=O)c2c(nc(NCCO)n2Cc2ccc(F)cc2)n(C)c1=O [IMB-2-2, 7-(4-fluorobenzyl)-8-((2-hydroxyethyl)amino)-1,3-dimethyl-3,7-dihydro-1H-purine-2,6-dione] | > 200 µM | 3.15 µM | – | –
Cn1c(=O)c2c(nc(NCCO)n2Cc2ccc(OC(F)(F)F)cc2)n(C)c1=O [IMB-2-3, 8-((2-hydroxyethyl)amino)-1,3-dimethyl-7-(4-(trifluoromethoxy)benzyl)-3,7-dihydro-1H-purine-2,6-dione] | > 242 µM | 11.4 µM | > 242 µM | 4.79 µM
Cn1c(=O)c2c(nc(NCCO)n2Cc2ccccc2Br)n(C)c1=O [IMB-2-6, 7-(2-bromobenzyl)-8-((2-hydroxyethyl)amino)-1,3-dimethyl-3,7-dihydro-1H-purine-2,6-dione] | > 200 µM | 12.8 µM | – | –
COc1cccc(Cn2c(-n3ccnc3)nc3c2c(=O)n(C)c(=O)n3C)c1 [IMB-2-26, 8-(1H-imidazol-1-yl)-7-(3-methoxybenzyl)-1,3-dimethyl-3,7-dihydro-1H-purine-2,6-dione] | > 200 µM | 38.5 µM | – | –
COc1cccc(Cn2c(N3CCN(c4ccc(F)cc4)CC3)nc3c2c(=O)n(C)c(=O)n3C)c1 [IMB-2-31, 8-(4-(4-fluorophenyl)piperazin-1-yl)-7-(3-methoxybenzyl)-1,3-dimethyl-3,7-dihydro-1H-purine-2,6-dione] | > 200 µM | 38.5 µM | – | –
COC(=O)c1ccc2c(ccn2-c2nc3c(c(=O)n(C)c(=O)n3C)n2Cc2cccc(OC)c2)c1 [IMB-2-32, Methyl-1-(7-(3-methoxybenzyl)-1,3-dimethyl-2,6-dioxo-2,3,6,7-tetrahydro-1H-purin-8-yl)-1H-indole-5-carboxylate] | 51.7 µM | 5.75 µM | – | –
COc1cccc(Cn2c(NCCO)nc3c2c(=O)n(CC2CCOCC2)c(=O)n3C)c1 [IMB-3-6, 8-((2-hydroxyethyl)amino)-7-(3-methoxybenzyl)-3-methyl-1-((tetrahydro-2H-pyran-4-yl)methyl)-3,7-dihydro-1H-purine-2,6-dione] | > 200 µM | – | – | –
COc1cccc(Cn2c(NCCO)nc3c2c(=O)n(Cc2ccc(F)cc2)c(=O)n3C)c1 [IMB-3-13, 1-(4-fluorobenzyl)-8-((2-hydroxyethyl)amino)-7-(3-methoxybenzyl)-3-methyl-3,7-dihydro-1H-purine-2,6-dione] | 46.2 µM | 17.2 µM | – | –
COc1ccc(Cn2c(=O)c3c(nc(NCCO)n3Cc3cccc(OC)c3)n(C)c2=O)cc1 [IMB-3-15, 8-((2-hydroxyethyl)amino)-7-(3-methoxybenzyl)-1-(4-methoxybenzyl)-3-methyl-3,7-dihydro-1H-purine-2,6-dione] | > 200 µM | 17.2 µM | – | –
COc1cccc(Cn2c(NCCO)nc3c2c(=O)n(Cc2ccncc2)c(=O)n3C)c1 [IMB-3-16, 8-((2-hydroxyethyl)amino)-7-(3-methoxybenzyl)-3-methyl-1-(pyridin-4-ylmethyl)-3,7-dihydro-1H-purine-2,6-dione] | 115 µM | 22.2 µM | – | –
CCn1c(=O)c2c(nc(Br)n2Cc2cccc(OC)c2)n(C)c1=O [IMB-3-30, 8-bromo-1-ethyl-7-(3-methoxybenzyl)-3-methyl-3,7-dihydro-1H-purine-2,6-dione] | 155 µM | 4.28 µM | – | –
C#CCCn1c(=O)c2c(nc(NCCO)n2Cc2cccc(OC)c2)n(C)c1=O [IMB-3-45, 1-(but-3-yn-1-yl)-8-((2-hydroxyethyl)amino)-7-(3-methoxybenzyl)-3-methyl-3,7-dihydro-1H-purine-2,6-dione] | > 200 µM | 66.7 µM | – | –
CCn1c(=O)c2c(nc(NCCO)n2Cc2cccc(OC)c2)n(C)c1=O [IMB-3-46, ethyl-8-((2-hydroxyethyl)amino)-7-(3-methoxybenzyl)-3-methyl-3,7-dihydro-1H-purine-2,6-dione] | > 200 µM | 155 µM | – | –
CCCn1c(=O)c2c(nc(NCCO)n2Cc2cccc(OC)c2)n(C)c1=O [IMB-3-47, 8-((2-hydroxyethyl)amino)-7-(3-methoxybenzyl)-3-methyl-1-propyl-3,7-dihydro-1H-purine-2,6-dione] | > 200 µM | 85.9 µM | – | –
COc1cccc(Cn2c(NCCO)nc3c2c(=O)n(CCNC(=O)OC(C)(C)C)c(=O)n3C)c1 [IMB-3-57, tert-butyl(2-(8-((2-hydroxyethyl)amino)-7-(3-methoxybenzyl)-3-methyl-2,6-dioxo-2,3,6,7-tetrahydro-1H-purin-1-yl)ethyl)carbamate] | > 200 µM | 66.7 µM | – | –
COc1cccc(Cn2c(NCCO)nc3c2c(=O)n(CCCNC(=O)OC(C)(C)C)c(=O)n3C)c1 [IMB-3-58, tert-butyl(3-(8-((2-hydroxyethyl)amino)-7-(3-methoxybenzyl)-3-methyl-2,6-dioxo-2,3,6,7-tetrahydro-1H-purin-1-yl)propyl)carbamate] | > 200 µM | 66.7 µM | – | –
C=CCn1c(=O)c2c(nc(NCCO)n2Cc2cccc(OC)c2)n(C)c1=O [IMB-3-71, allyl-8-((2-hydroxyethyl)amino)-7-(3-methoxybenzyl)-3-methyl-3,7-dihydro-1H-purine-2,6-dione] | 115 µM | 38.5 µM | – | –

Structure (SMILES) | CC50 (in vitro [1]) | EC50 (HCoV-229E [2]) | CC50 (in vitro [3]) | EC50 (HCoV-229E [4])
C#CCn1c(=O)c2c(nc(NCCO)n2Cc2cccc(OC)c2)n(C)c1=O [IMB-3-72, 8-((2-hydroxyethyl)amino)-7-(3-methoxybenzyl)-3-methyl-1-(prop-2-yn-1-yl)-3,7-dihydro-1H-purine-2,6-dione] | > 200 µM | 115 µM | – | –
COc1cccc(Cn2c(NCCO)nc3c2c(=O)n(C)c(=O)n3Cc2ccccc2)c1 [IMB-3-81, benzyl-8-((2-hydroxyethyl)amino)-7-(3-methoxybenzyl)-1-methyl-3,7-dihydro-1H-purine-2,6-dione] | > 200 µM | 96.2 µM | – | –
CCOC(=O)c1cccc(Cn2c(NCCO)nc3c2c(=O)n(C)c(=O)n3C)c1 [IMB-4-6, ethyl3-((8-((2-hydroxyethyl)amino)-1,3-dimethyl-2,6-dioxo-1,2,3,6-tetrahydro-7H-purin-7-yl)methyl)benzoate] | 200 µM | 2.47 µM | – | –
Cn1c(=O)c2c(nc(NCCO)n2Cc2ccsc2)n(C)c1=O [IMB-4-12, 8-((2-hydroxyethyl)amino)-1,3-dimethyl-7-(thiophen-3-ylmethyl)-3,7-dihydro-1H-purine-2,6-dione] | > 200 µM | 3.99 µM | – | –
COc1cccc(CCn2c(NCCO)nc3c2c(=O)n(C)c(=O)n3C)c1 [IMB-4-13, 8-((2-hydroxyethyl)amino)-7-(3-methoxyphenethyl)-1,3-dimethyl-3,7-dihydro-1H-purine-2,6-dione] | > 200 µM | 15.4 µM | – | –
Cn1c(=O)c2c(nc(NCCO)n2Cc2cccc([N+](=O)[O-])c2)n(C)c1=O [IMB-79] | > 200 µM | 17.2 µM | – | –
Cn1c(=O)c2c(nc(NCCO)n2Cc2cccc(F)c2)n(C)c1=O [IMB-80, 7-(3-fluorobenzyl)-8-((2-hydroxyethyl)amino)-1,3-dimethyl-3,7-dihydro-1H-purine-2,6-dione] | > 288 µM | 10.7 µM | > 288 µM | 14 µM
Cn1c(=O)c2c(nc(NCCO)n2Cc2cccc(Br)c2)n(C)c1=O [IMB-81, 7-(3-bromobenzyl)-8-((2-hydroxyethyl)amino)-1,3-dimethyl-3,7-dihydro-1H-purine-2,6-dione] | 124 µM | 2.47 µM | – | –
Cn1c(=O)c2c(nc(NCCO)n2Cc2cccc(F)c2F)n(C)c1=O [IMB-82, 7-(2,3-difluorobenzyl)-8-((2-hydroxyethyl)amino)-1,3-dimethyl-3,7-dihydro-1H-purine-2,6-dione] | > 274 µM | 30.4 µM | > 274 µM | 69.3 µM
Cn1c(=O)c2c(nc(NCCO)n2Cc2ccc(F)cc2F)n(C)c1=O [IMB-83, 7-(2,4-difluorobenzyl)-8-((2-hydroxyethyl)amino)-1,3-dimethyl-3,7-dihydro-1H-purine-2,6-dione] | > 200 µM | 3.15 µM | – | –
Cn1c(=O)c2c(nc(NCCO)n2Cc2ccc(C(C)(C)C)cc2)n(C)c1=O [IMB-84, 7-(4-(tert-butyl)benzyl)-8-((2-hydroxyethyl)amino)-1,3-dimethyl-3,7-dihydro-1H-purine-2,6-dione] | > 259 µM | 15.4 µM | > 259 µM | 12.3 µM
COc1ccc(Cn2c(NCCO)nc3c2c(=O)n(C)c(=O)n3C)cc1 [IMB-88] | > 278 µM | 16.5 µM | > 278 µM | 23.5 µM
COc1cccc(Cn2c(N[C@@H](C)CO)nc3c2c(=O)n(C)c(=O)n3C)c1 [IMB-ZH-2, (S)-8-((1-hydroxypropan-2-yl)amino)-7-(3-methoxybenzyl)-1,3-dimethyl-3,7-dihydro-1H-purine-2,6-dione] | > 134 µM | 44.7 µM | > 134 µM | 82.9 µM
COCCNc1nc2c(c(=O)n(C)c(=O)n2C)n1Cc1cccc(OC)c1 [IMB-ZH-10, 7-(3-methoxybenzyl)-8-((2-methoxyethyl)amino)-1,3-dimethyl-3,7-dihydro-1H-purine-2,6-dione] | > 134 µM | 8.6 µM | > 134 µM | 19 µM
COc1cccc(Cn2c(NCc3ccc(F)c(C(F)(F)F)c3)nc3c2c(=O)n(C)c(=O)n3C)c1 [IMB-ZH-11, 8-((4-fluoro-3-(trifluoromethyl)benzyl)amino)-7-(3-methoxybenzyl)-1,3-dimethyl-3,7-dihydro-1H-purine-2,6-dione] | > 102 µM | 21 µM | > 102 µM | 26.6 µM
NC(=O)c1ncn([C@@H]2O[C@H](CO)[C@@H](O)[C@H]2O)n1 [RBV, Ribavirin, reference compound] | – | 26.2 µM | – | 16.7 µM
